Reference: patent EP2818472A1, “Imidazo[4,5-c]pyridine and pyrrolo[3,2-c]pyridine compounds as G-protein-coupled receptor kinase 5 (GRK5) modulators” (Max-Planck-Gesellschaft zur Förderung der Wissenschaften …, priority 2013, dated 2014)

Each compound was assayed on beta-TC6 cells (assay: Insulin HTRF assay (relative activity Ar) in beta-TC6 cells). Conditions: Mus musculus, Beta-TC6, 4 h, insulin HTRF, supernatant of beta-TC6 cells, incubation with test compound at 37°C for 2, 3, 4h; read-out: Ar (relative activity).
Type: cell-based, mouse
Method in brief: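 beta-TC6 cells (15k/well, seeded 24 or 48 h) washed, then exposed to compound in induction buffer (0.5% DMSO final) for 2, 3 or 4 h at 37°C.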

| Structure (SMILES) | Emax |
| --- | --- |
| Cc1ccc(-c2nc3c(Nc4cccc(NS(C)(=O)=O)c4)nccc3[nH]2)cc1 [Compound 384, N-[3-[[2-(p-tolyl)-1H-imidazo[4,5-c]pyridin-4-yl]amino]phenyl]methanesulfonamide] | 30 to 50% |
| COCCNC(=O)c1cccc(-c2nc3c(Nc4cc(OC)c(OC)c(OC)c4)nccc3[nH]2)c1 [Compound 385, N-(2-methoxyethyl)-3-[4-(3,4,5-trimethoxyanilino)-1H-imidazo[4,5-c]pyridin-2-yl]benzamide] | > 100% |
| COCCNC(=O)c1cccc(-c2nc3c(Nc4cccc(OC)c4)nccc3[nH]2)c1 [Compound 386, 3-[4-(3-methoxyanilino)-1H-imidazo[4,5-c]pyridin-2-yl]-N-(2-methoxyethyl)benzamide] | 50 to 100% |
| COCCNC(=O)c1cccc(-c2nc3c(Nc4ccccc4)nccc3[nH]2)c1 [Compound 387, 3-(4-anilino-1H-imidazo[4,5-c]pyridin-2-yl)-N-(2-methoxyethyl)benzamide] | 30 to 50% |
| COc1ccc(-c2nc3c(Nc4cc(OC)c(OC)c(OC)c4)nccc3[nH]2)cc1 [Compound 389, 2-(4-methoxyphenyl)-N-(3,4,5-trimethoxyphenyl)-1H-imidazo[4,5-c]pyridin-4-amine] | 50 to 100% |
| COc1ccc(-c2nc3c(Nc4cccc(OC)c4)nccc3[nH]2)cc1 [Compound 390, N-(3-methoxyphenyl)-2-(4-methoxyphenyl)-1H-imidazo[4,5-c]pyridin-4-amine] | 30 to 50% |
| COc1ccc(-c2nc3c(Nc4ccccc4)nccc3[nH]2)cc1 [Compound 393, 2-(4-methoxyphenyl)-N-phenyl-1H-imidazo[4,5-c]pyridin-4-amine] | 30 to 50% |
| COc1ccc(-c2nc3c(NCCc4ccccn4)nccc3[nH]2)cc1 [Compound 394, 2-(4-methoxyphenyl)-N-[2-(2-pyridyl)ethyl]-1H-imidazo[4,5-c]pyridin-4-amine] | 30 to 50% |
| COc1ccc(Nc2nccc3[nH]c(-c4ccc(OC)cc4)nc23)cc1 [Compound 395, N,2-bis(4-methoxyphenyl)-1H-imidazo[4,5-c]pyridin-4-amine] | 50 to 100% |
| COc1ccc(-c2nc3c(N4CCN(C)CC4)nccc3[nH]2)cc1 [Compound 396, 2-(4-methoxyphenyl)-4-(4-methylpiperazin-1-yl)-1H-imidazo[4,5-c]pyridine] | 30 to 50% |
| COc1ccc(-c2nc3c(Nc4cccc(O)c4)nccc3[nH]2)cc1 [Compound 397, 3-[[2-(4-methoxyphenyl)-1H-imidazo[4,5-c]pyridin-4-yl]amino]phenol] | 50 to 100% |
| COc1ccc(-c2nc3c(Nc4ccc(OC)c(O)c4)nccc3[nH]2)cc1 [Compound 398, 2-methoxy-5-[[2-(4-methoxyphenyl)-1H-imidazo[4,5-c]pyridin-4-yl]amino]phenol] | > 100% |
| COc1ccc(-c2nc3c(N4CCOCC4)nccc3[nH]2)cc1 [Compound 399, 4-[2-(4-methoxyphenyl)-1H-imidazo[4,5-c]pyridin-4-yl]morpholine] | 30 to 50% |
| COc1ccc(-c2nc3c(NCC4CC4)nccc3[nH]2)cc1 [Compound 400, N-(cyclopropylmethyl)-2-(4-methoxyphenyl)-1H-imidazo[4,5-c]pyridin-4-amine] | 30 to 50% |
| COCCCNc1nccc2[nH]c(-c3ccc(OC)cc3)nc12 [Compound 401, 2-(4-methoxyphenyl)-N-(3-methoxypropyl)-1H-imidazo[4,5-c]pyridin-4-amine] | 30 to 50% |
| COc1cc(Nc2nccc3[nH]c(-c4cccc(F)c4)nc23)cc(OC)c1OC [Compound 402, 2-(3-fluorophenyl)-N-(3,4,5-trimethoxyphenyl)-1H-imidazo[4,5-c]pyridin-4-amine] | 30 to 50% |
| NC(=O)c1ccc(Nc2nccc3[nH]c(-c4cccc(F)c4)nc23)cc1 [Compound 403, 4-[[2-(3-fluorophenyl)-1H-imidazo[4,5-c]pyridin-4-yl]amino]benzamide] | 30 to 50% |
| COc1ccc(Nc2nccc3[nH]c(-c4cccc(F)c4)nc23)cc1OC [Compound 404, N-(3,4-dimethoxyphenyl)-2-(3-fluorophenyl)-1H-imidazo[4,5-c]pyridin-4-amine] | > 100% |
| COc1ccc(Nc2nccc3[nH]c(-c4cccc(F)c4)nc23)cn1 [Compound 405, 2-(3-fluorophenyl)-N-(6-methoxy-3-pyridyl)-1H-imidazo[4,5-c]pyridin-4-amine] | 30 to 50% |
| Fc1cccc(-c2nc3c(NCCc4ccccn4)nccc3[nH]2)c1 [Compound 406, 2-(3-fluorophenyl)-N-[2-(2-pyridyl)ethyl]-1H-imidazo[4,5-c]pyridin-4-amine] | 50 to 100% |
| COc1ccc(Nc2nccc3[nH]c(-c4cccc(F)c4)nc23)cc1 [Compound 407, 2-(3-fluorophenyl)-N-(4-methoxyphenyl)-1H-imidazo[4,5-c]pyridin-4-amine] | 50 to 100% |
| Fc1cccc(-c2nc3c(Nc4cccc(Oc5ccccc5)c4)nccc3[nH]2)c1 [Compound 408, 2-(3-fluorophenyl)-N-(3-phenoxyphenyl)-1H-imidazo[4,5-c]pyridin-4-amine] | 0 to 30% |

| Structure (SMILES) | Emax |
| --- | --- |
| COc1cc(Nc2nccc3[nH]c(-c4ccc5c(c4)OCCO5)nc23)cc(OC)c1OC [Compound 409, 2-(2,3-dihydro-1,4-benzodioxin-6-yl)-N-(3,4,5-trimethoxyphenyl)-1H-imidazo[4,5-c]pyridin-4-amine] | 50 to 100% |
| COc1cccc(Nc2nccc3[nH]c(-c4ccc5c(c4)OCCO5)nc23)c1 [Compound 410, 2-(2,3-dihydro-1,4-benzodioxin-6-yl)-N-(3-methoxyphenyl)-1H-imidazo[4,5-c]pyridin-4-amine] | 30 to 50% |
| COc1ccc(Nc2nccc3[nH]c(-c4ccc5c(c4)OCCO5)nc23)cc1OC [Compound 411, 2-(2,3-dihydro-1,4-benzodioxin-6-yl)-N-(3,4-dimethoxyphenyl)-1H-imidazo[4,5-c]pyridin-4-amine] | 50 to 100% |
| c1ccc(Nc2nccc3[nH]c(-c4ccc5c(c4)OCCO5)nc23)cc1 [Compound 412, 2-(2,3-dihydro-1,4-benzodioxin-6-yl)-N-phenyl-1H-imidazo[4,5-c]pyridin-4-amine] | 30 to 50% |
| CC(C)CNc1nccc2[nH]c(-c3ccc4c(c3)OCCO4)nc12 [Compound 413, 2-(2,3-dihydro-1,4-benzodioxin-6-yl)-N-isobutyl-1H-imidazo[4,5-c]pyridin-4-amine] | 30 to 50% |
| COc1ccc(Nc2nccc3[nH]c(-c4ccc5c(c4)OCCO5)nc23)cc1 [Compound 414, 2-(2,3-dihydro-1,4-benzodioxin-6-yl)-N-(4-methoxyphenyl)-1H-imidazo[4,5-c]pyridin-4-amine] | 50 to 100% |
| OCCNc1nccc2[nH]c(-c3ccc4c(c3)OCCO4)nc12 [Compound 416, 2-[[2-(2,3-dihydro-1,4-benzodioxin-6-yl)-1H-imidazo[4,5-c]pyridin-4-yl]amino]ethanol] | 30 to 50% |
| CS(=O)(=O)c1cccc(Nc2nccc3[nH]c(-c4ccc5c(c4)OCCO5)nc23)c1 [Compound 417, 2-(2,3-dihydro-1,4-benzodioxin-6-yl)-N-(3-methylsulfonylphenyl)-1H-imidazo[4,5-c]pyridin-4-amine] | 30 to 50% |
| Oc1cccc(Nc2nccc3[nH]c(-c4ccc5c(c4)OCCO5)nc23)c1 [Compound 418, 3-[[2-(2,3-dihydro-1,4-benzodioxin-6-yl)-1H-imidazo[4,5-c]pyridin-4-yl]amino]phenol] | 50 to 100% |
| c1cc2[nH]c(-c3ccc4c(c3)OCCO4)nc2c(NCC2CC2)n1 [Compound 419, N-(cyclopropylmethyl)-2-(2,3-dihydro-1,4-benzodioxin-6-yl)-1H-imidazo[4,5-c]pyridin-4-amine] | 50 to 100% |
| COCCCNc1nccc2[nH]c(-c3ccc4c(c3)OCCO4)nc12 [Compound 420, 2-(2,3-dihydro-1,4-benzodioxin-6-yl)-N-(3-methoxypropyl)-1H-imidazo[4,5-c]pyridin-4-amine] | 30 to 50% |
| COc1cc(Nc2nccc3[nH]c(-c4ccncc4)nc23)cc(OC)c1OC [Compound 421, 2-(4-pyridyl)-N-(3,4,5-trimethoxyphenyl)-1H-imidazo[4,5-c]pyridin-4-amine] | 50 to 100% |
| COc1cccc(Nc2nccc3[nH]c(-c4ccncc4)nc23)c1 [Compound 422, N-(3-methoxyphenyl)-2-(4-pyridyl)-1H-imidazo[4,5-c]pyridin-4-amine] | 30 to 50% |
| COc1ccc(Nc2nccc3[nH]c(-c4ccncc4)nc23)cc1OC [Compound 423, N-(3,4-dimethoxyphenyl)-2-(4-pyridyl)-1H-imidazo[4,5-c]pyridin-4-amine] | > 100% |
| Clc1cccc(Nc2nccc3[nH]c(-c4ccncc4)nc23)c1 [Compound 424, N-(3-chlorophenyl)-2-(4-pyridyl)-1H-imidazo[4,5-c]pyridin-4-amine] | 30 to 50% |
| CCN(CC)CCNC(=O)c1ccc(Nc2nccc3[nH]c(-c4ccncc4)nc23)cc1 [Compound 425, N-(2-diethylaminoethyl)-4-[[2-(4-pyridyl)-1H-imidazo[4,5-c]pyridin-4-yl]amino]benzamide] | 50 to 100% |
| CN(C)c1cccc(Nc2nccc3[nH]c(-c4ccncc4)nc23)c1 [Compound 426, N1,N1-dimethyl-N3-[2-(4-pyridyl)-1H-imidazo[4,5-c]pyridin-4-yl]benzene-1,3-diamine] | 50 to 100% |
| COc1ccc(Nc2nccc3[nH]c(-c4ccncc4)nc23)cc1 [Compound 427, N-(4-methoxyphenyl)-2-(4-pyridyl)-1H-imidazo[4,5-c]pyridin-4-amine] | 50 to 100% |
| c1ccc(CNc2nccc3[nH]c(-c4ccncc4)nc23)cc1 [Compound 428, N-benzyl-2-(4-pyridyl)-1H-imidazo[4,5-c]pyridin-4-amine] | 30 to 50% |
| CC(C)[C@H](CO)Nc1nccc2[nH]c(-c3ccncc3)nc12 [Compound 429, (2R)-3-methyl-2-[[2-(4-pyridyl)-1H-imidazo[4,5-c]pyridin-4-yl]amino]butan-1-ol] | 0 to 30% |
| CN(C)c1ccc(CNc2nccc3[nH]c(-c4ccncc4)nc23)cc1 [Compound 430, N-[(4-dimethylaminophenyl)methyl]-2-(4-pyridyl)-1H-imidazo[4,5-c]pyridin-4-amine] | 50 to 100% |
